Laboratory results: ChEMBL document CHEMBL2151011, “Substituted pyridines as sodium channel blockers: patent highlight” (ACS Med Chem Lett, 2012)

Tests used:
[1] = target: T1, Sodium channel protein type 9 subunit alpha (Homo sapiens, UniProt Q15858); assay: Blockade of Nav1.7 by electrophysiological patch clamp assay
[2] = target: T1, Sodium channel protein type 9 subunit alpha; assay: Blockade of Nav1.7 by FLIPR TETRA sodium dye assay in presence of KCl salt

T1 sequence (Q15858 whole entry): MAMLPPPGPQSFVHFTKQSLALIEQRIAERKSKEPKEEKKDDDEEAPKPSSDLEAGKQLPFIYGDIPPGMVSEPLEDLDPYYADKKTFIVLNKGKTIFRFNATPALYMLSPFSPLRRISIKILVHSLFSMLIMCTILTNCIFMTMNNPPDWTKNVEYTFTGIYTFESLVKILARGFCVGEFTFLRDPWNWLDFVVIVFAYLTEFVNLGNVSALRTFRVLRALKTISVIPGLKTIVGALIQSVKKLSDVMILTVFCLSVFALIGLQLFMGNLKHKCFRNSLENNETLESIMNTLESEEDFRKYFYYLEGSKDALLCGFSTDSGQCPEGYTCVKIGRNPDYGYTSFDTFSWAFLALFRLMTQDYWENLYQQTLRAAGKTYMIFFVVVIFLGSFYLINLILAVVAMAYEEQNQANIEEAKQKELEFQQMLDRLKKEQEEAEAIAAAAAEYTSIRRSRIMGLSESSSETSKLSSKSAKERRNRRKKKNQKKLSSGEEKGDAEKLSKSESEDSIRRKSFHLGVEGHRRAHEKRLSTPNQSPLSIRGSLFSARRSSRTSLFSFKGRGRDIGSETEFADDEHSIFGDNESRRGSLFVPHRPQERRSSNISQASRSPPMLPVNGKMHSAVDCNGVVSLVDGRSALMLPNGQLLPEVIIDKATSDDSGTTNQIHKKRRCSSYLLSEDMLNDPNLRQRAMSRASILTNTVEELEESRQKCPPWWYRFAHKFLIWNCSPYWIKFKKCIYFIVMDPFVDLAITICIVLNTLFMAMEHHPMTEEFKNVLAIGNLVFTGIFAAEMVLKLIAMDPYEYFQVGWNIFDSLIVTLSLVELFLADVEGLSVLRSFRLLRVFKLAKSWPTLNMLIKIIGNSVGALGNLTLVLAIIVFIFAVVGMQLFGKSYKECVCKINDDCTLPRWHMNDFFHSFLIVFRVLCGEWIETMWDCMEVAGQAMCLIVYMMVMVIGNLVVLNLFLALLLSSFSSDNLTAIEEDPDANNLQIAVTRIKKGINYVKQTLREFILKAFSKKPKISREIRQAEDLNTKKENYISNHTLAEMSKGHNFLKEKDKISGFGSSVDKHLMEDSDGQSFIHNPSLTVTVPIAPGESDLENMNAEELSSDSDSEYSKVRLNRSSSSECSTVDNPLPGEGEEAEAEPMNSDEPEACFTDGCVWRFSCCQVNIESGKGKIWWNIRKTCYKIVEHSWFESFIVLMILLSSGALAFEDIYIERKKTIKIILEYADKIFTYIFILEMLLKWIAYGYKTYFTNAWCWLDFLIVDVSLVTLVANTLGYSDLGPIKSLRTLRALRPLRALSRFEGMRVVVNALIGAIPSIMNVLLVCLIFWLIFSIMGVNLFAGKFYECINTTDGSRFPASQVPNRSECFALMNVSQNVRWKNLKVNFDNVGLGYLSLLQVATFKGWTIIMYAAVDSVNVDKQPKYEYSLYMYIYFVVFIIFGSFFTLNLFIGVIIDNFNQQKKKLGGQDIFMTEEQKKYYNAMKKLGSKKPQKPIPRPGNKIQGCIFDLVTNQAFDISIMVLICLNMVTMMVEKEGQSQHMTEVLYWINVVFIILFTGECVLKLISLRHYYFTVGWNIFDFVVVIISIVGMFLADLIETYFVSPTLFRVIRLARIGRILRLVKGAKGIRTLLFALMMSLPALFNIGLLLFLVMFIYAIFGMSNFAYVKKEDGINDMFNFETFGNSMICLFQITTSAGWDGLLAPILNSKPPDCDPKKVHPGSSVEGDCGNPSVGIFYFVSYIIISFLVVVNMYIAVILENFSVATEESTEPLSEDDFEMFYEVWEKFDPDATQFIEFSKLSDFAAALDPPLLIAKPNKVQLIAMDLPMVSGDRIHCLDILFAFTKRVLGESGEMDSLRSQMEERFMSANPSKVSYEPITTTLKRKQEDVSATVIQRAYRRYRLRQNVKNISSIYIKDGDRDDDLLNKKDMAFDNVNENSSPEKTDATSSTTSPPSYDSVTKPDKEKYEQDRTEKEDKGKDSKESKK

SMILES: O=C(N[C@@H](CO)C(=O)Nc1cccc(-c2ccc(Oc3ccc(F)cc3)cc2)n1)c1ccccn1
- Ki [1]: 195 nM
- IC50 [2]: 140 nM
